The results in this text go back to PMC13022995 (Environmental science & technology, 2025).

Series [1] has as its system hTERT-MSCs and aortic ECs (TeloHAECs) co-culture. It is filed as cell-based, human.
Series [2] relates to liver, renal, bladder, and lung cells.
For series [3], the system named is p53RE-bla HCT116 cells. The series is classed as cell-based, human.
Series [4] concerns HepG2 cells. The series is classed as cell-based, human.

Molecules are shown by their SMILES. Like-named read-outs stand apart in the source and are kept apart here.

Take `O=[N+]([O-])c1ccc([As](=O)(O)O)cc1` [nitarsone, Nitarsone]: in series [1], the angiogenesis induction result was “induced angiogenesis”.
Take `[Cl][Cd][Cl]` [cadmium chloride]: the angiogenesis induction result in series [1] was “independently induce angiogenesis”. Moreover, in series [2], the “cytotoxicity of single compound” value was “cytotoxic by themselves”.
Regarding `CC(=O)[O-].CC(=O)[O-].O.O.O.[Pb+2]` [lead(II) acetate trihydrate], the “cytotoxicity of single compound” value in series [2] is on record as “cytotoxic by themselves”.
In the case of `CC(=O)[O-].CC(=O)[O-].O.O.[Cd+2]` [cadmium acetate dihydrate, Cadmium acetate dihydrate], the angiogenesis induction result in series [1] is recorded as “independently induce angiogenesis”. Further, in series [2], the “cytotoxicity of single compound” value is recorded as “cytotoxic by themselves”.
With `O.O.O.O.O=S(=O)([O-])[O-].[Be+2]` [beryllium sulfate tetrahydrate], in series [3], the p53 activation result is “activated p53”. In addition, the ROS induction result in series [4] (HepG2 cells) is on record as “not detected”.
Consider `[Cl][Pb][Cl]` [lead(II) chloride, Lead(II) chloride], for which, in series [1], the angiogenesis induction entry was “induced angiogenesis”. In series [2], the “cytotoxicity of single compound” value is listed as “cytotoxic by themselves”.
For the compound `O.O.O.O.O=[N+]([O-])[O-].O=[N+]([O-])[O-].[Cd+2]` [cadmium nitrate tetrahydrate, Cadmium nitrate tetrahydrate], the angiogenesis induction result in series [1] is on record as “independently induce angiogenesis”. Moreover, in series [2], the “cytotoxicity of single compound” value is given as “cytotoxic by themselves”. Moreover, the oxidative stress-inducing capability result in series [4] (among components of Mixture 1, Supporting Table 3) was “exhibited oxidative stress-inducing capability”.
Turning to `O=[As]O[As]=O` (stereo not drawn) [arsenic oxide], the ROS induction result in series [4] (HepG2 cells) is “not detected”.
Regarding `O.O.O.O.O.O.O=S(=O)([O-])[O-].[Ni+2]` [nickel sulfate, nickel(II) sulfate hexahydrate], the ROS induction result in series [4] is reported as “not detected”.
